Measurements from patent US20240262825A1, “PAIN TREATING COMPOUNDS AND USES THEREOF” (BIONOMICS LIMITED, priority 2018, published 2024).

Target: T1, hNav1.7 (Homo sapiens, UniProt Q15858)
T1 construct: expressed in transfected cells
Experiment: hNav1.7 inactivated state (SIS) automated patch clamp electrophysiology
Type: cell-based
Conditions: Assay Conc. 10 uM; inactivated state protocol, HEK cells, whole-cell Patchliner
Method: hNav1.7, hNav1.2, hNav1.3, hNav1.4, hNav1.5, hNav1.6 were stably expressed in human embryonic kidney cells and kept under constant antibiotic selection. For in vitro assays, cells were maintained in appropriate growth medium at 37° C. and 5% CO2 in a humidified incubator.
Nav1.x expressing cells plated in T-25 flasks for 2-3 days prior to use and grown to 70-85% confluence were briefly trypsinized to obtain a single cell suspension of ˜2-3×10^6 cells/ml. All electrophysiological recordings were performed at ambient temperature (21-23° C.) using automated patch clamp (Patchliner, Nanion Technologies GmbH) in the whole-cell configuration using the following solutions: Internal solution contained (in mM): CsCl (50), NaCl (10), CsF (60), EGTA (20), HEPES (10), pH 7.2 KOH, 285 mOsmol·Kg^−1. External (bath) solution contained (in mM): NaCl (140), KCl (4), MgCl2 (1), CaCl2 (2) D-Glucose monohydrate (5), HEPES (10), pH 7.4 NaOH, 298 mOsmol·kg^−1.
For each Nav1.x channel, a steady state inactivation curve was obtained in order to calculate the voltage resulting in 50% channel inactivation (V0.5inact). A 2 pulse protocol was then employed in which cells held at a voltage corresponding to 20 mV more negative to V0.5 inact were depolarised to −10 mV for 20 ms before returning to the previous holding voltage. This test pulse constituted P1 and represents 100% available (non-inactivated) Nav1.x channels. The same cell was then depolarised for 8 s to a voltage corresponding to 7 mV more positive than V0.5inact in order to cause channel inactivation. Following a brief (2 ms) hyperpolarising voltage step to −120 mV (to reset the activation gate), cells were again subjected to a depolarising test pulse (P2) to −10 mV for 20 ms before returning to the holding potential. Each sequence was repeated 6×at 30 s intervals. Using this protocol, control P2 current amplitudes (representing the % channels available following 8 s inactivation) was ˜50% of control P1 current amplitude. 6 repetitions of this recording sequence were made in the control bath solution and then again 2 minutes after compound addition and thereafter at increasing compound concentrations. % inhibition was calculated by (1−(P2drug at repetition 6/P2control at repetition 6))*100. Data were either presented as % block by a single concentration of drug or an estimated eIC50 determined from 2-3 drug concentrations which was determined by fitting data with a sigmoidal dose response curve (variable slope) using GraphPad Prism software (Version 6.0).
All compounds were dissolved in DMSO to 20 mM initially. Subsequent dilutions in DMSO were made to achieve 200×final bath concentrations. DMSO compound stocks were finally diluted 1/200 in bath solution just prior to assay resulting in a final DMSO concentration of 0.5% which was not found to affect control current amplitude.

T1 sequence (Q15858 whole entry): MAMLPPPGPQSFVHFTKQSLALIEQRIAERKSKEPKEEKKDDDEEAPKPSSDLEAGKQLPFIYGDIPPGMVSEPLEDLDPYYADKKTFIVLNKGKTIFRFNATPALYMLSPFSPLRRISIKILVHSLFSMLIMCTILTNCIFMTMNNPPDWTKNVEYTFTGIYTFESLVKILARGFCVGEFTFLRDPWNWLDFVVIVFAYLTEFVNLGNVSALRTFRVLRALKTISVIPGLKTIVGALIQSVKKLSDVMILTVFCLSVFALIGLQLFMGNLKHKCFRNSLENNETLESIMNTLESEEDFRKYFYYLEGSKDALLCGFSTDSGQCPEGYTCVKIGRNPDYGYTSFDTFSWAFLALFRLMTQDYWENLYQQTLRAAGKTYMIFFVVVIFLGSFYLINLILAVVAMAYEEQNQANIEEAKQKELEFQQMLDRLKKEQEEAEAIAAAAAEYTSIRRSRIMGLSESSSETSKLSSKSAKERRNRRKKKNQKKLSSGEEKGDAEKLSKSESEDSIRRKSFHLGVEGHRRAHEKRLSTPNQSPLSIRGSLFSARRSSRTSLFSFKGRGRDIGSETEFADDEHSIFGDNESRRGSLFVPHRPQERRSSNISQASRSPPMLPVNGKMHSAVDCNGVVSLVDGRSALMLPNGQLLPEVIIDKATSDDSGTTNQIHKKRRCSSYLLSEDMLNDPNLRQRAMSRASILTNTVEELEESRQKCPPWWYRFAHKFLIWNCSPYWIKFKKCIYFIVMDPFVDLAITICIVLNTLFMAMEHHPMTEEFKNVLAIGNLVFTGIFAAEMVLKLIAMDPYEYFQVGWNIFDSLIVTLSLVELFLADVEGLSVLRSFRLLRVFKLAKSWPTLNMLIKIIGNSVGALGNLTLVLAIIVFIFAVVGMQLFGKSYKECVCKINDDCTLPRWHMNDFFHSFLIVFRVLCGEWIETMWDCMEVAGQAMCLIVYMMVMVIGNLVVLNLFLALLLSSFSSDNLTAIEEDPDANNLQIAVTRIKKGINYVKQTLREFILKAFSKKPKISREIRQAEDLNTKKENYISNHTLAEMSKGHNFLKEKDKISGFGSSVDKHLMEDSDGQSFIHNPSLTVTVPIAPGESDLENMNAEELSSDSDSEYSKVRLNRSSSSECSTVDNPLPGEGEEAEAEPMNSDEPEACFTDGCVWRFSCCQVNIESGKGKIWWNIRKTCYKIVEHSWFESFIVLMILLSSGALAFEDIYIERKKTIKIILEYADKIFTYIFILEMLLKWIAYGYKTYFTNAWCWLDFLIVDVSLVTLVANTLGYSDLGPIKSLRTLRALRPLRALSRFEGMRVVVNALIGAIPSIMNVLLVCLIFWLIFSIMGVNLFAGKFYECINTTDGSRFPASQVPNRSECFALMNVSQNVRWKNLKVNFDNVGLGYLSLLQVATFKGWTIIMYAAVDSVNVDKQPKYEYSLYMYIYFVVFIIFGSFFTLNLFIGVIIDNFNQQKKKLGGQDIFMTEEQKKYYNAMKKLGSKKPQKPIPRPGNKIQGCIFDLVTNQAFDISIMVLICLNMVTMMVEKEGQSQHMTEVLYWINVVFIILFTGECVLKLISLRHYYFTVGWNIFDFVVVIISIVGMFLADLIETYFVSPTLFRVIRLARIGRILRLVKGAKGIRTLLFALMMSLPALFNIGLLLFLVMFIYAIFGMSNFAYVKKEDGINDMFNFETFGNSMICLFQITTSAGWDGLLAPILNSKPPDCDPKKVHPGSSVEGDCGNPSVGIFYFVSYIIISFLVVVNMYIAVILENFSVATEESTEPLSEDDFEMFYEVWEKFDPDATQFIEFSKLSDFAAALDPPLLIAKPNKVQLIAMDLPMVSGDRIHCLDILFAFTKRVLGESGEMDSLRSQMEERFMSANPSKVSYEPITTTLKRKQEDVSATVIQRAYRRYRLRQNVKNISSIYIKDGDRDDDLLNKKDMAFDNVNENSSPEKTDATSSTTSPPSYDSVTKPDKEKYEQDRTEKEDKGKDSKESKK

hNav1.7 SIS (% inh) [%] | SMILES
71 | O=C(NCc1ccc(OCc2ccccc2F)cc1)c1cn2ccccc2n1 [Compound 25]

Same assay, conditions: HEK293, Assay Conc. 3 uM; inactivated state protocol, HEK cells, whole-cell Patchliner; read-out: hNav1.7 SIS (% inh)

inhibition at 3 µM [%] | SMILES
61 | O=C(NCc1ccc(OCc2ccccc2F)cc1)c1csc(C(F)(F)F)n1 [Compound 23]

Same assay, conditions: HEK293, Assay Conc. 10 uM; inactivated state protocol, HEK cells, whole-cell Patchliner; read-out: hNav1.7 SIS (% inh)

inhibition at 10 µM [%] | SMILES
35 | Cn1ccc(C(=O)NCc2ccc(OCc3ccccc3F)cc2)cc1=O [Compound 12]
32 | Cn1cccc(C(=O)NCc2ccc(OCc3ccccc3F)cc2)c1=O [Compound 16]
39 | Cc1nc(C(=O)NCc2ccc(OCc3ccccc3F)cc2)cs1 [Compound 5]
35 | O=C(NCc1ccc(OCc2ccccc2F)cc1)c1nnc(C2CC2)o1 [Compound 9]
36 | CN(Cc1ccc(OCc2ccccc2F)cc1)C(=O)c1csc(C(F)(F)F)n1 [Compound 4]
44 | Cc1n[nH]c(C(=O)NCc2ccc(OCc3ccccc3F)cc2)n1 [Compound 8]
59 | Cc1cnc(C(=O)NCc2ccc(OCc3ccccc3F)cc2)cn1 [Compound 22]
47 | COc1ncc(C(=O)NCc2ccc(OCc3ccccc3F)cc2)cn1 [Compound 6]
34 | O=C(NCc1ccc(OCc2ccccc2F)cc1)c1cn[nH]c1 [Compound 3]
92 | CN(Cc1ccc(OCc2ccccc2F)cc1)C(=O)c1cn2ccccc2n1 [Compound 27]
52 | O=C(NCc1ccc(OCc2ccccc2F)cc1)c1cscn1 [Compound 21]

The remaining lines, values behind:

SMILES | inhibition at 10 µM [%]
O=C(NCc1ccc(OCc2ccccc2F)cc1)c1cccc2ncnn12 [Compound 13] | 42
COc1ncccc1C(=O)NCc1ccc(OCc2ccccc2F)cc1 [Compound 17] | 32
O=C(NCc1ccc(OCC2CCCC2)cc1)c1ccn2ccnc2c1 [Compound 52] | 45
O=C(NCc1ccc(OCc2ccccc2F)cc1)c1cccnc1 [Compound 1] | 41
O=C(NCc1ccc(OCc2ccccc2F)cc1)c1cc2cccn2cn1 [Compound 2] | 48
O=C(NCc1ccc(OCc2ccccc2F)cc1)c1ccn2cnnc2c1 [Compound 10] | 30
O=C(NCc1ccc(OCc2ccccc2F)cc1)c1ccn2cncc2c1 [Compound 18] | 50
COC[C@H](C)N(Cc1ccc(OCc2ccccc2F)cc1)C(=O)c1cn2ccccc2n1 [Compound 24] | 63
O=C(NCc1ccc(OCc2ccccc2F)cc1)c1cccn2ncnc12 [Compound 14] | 49
O=C(NCc1ccc(OCc2ccccc2F)cc1)c1cc[nH]c(=O)c1 [Compound 11] | 34
O=C(NCc1ccc(OCc2ccccc2F)cc1)c1ccc2cncn2c1 [Compound 46] | 34
O=C(NCc1ccc(OCc2ccccc2F)cn1)c1cccn2cnnc12 [Compound 20] | 36
O=C(NCc1ccc(OCc2ccccc2F)cc1)c1cn2ccccc2n1 [Compound 53] | 56
CC(C)(Oc1ccc(CNC(=O)c2cccn3cnnc23)cc1)c1ccccc1F [Compound 7] | 35
O=C(NCc1ccc(OCc2ccccc2F)cc1)c1ccn2ncnc2c1 [Compound 15] | 51
O=C(NCc1ccc(OCc2ccccc2F)cc1)c1cccc2cncn12 [Compound 19] | 35

Same assay, conditions: estimated eIC50 from 2-3 drug concentrations; inactivated state protocol

IC50 [µM] | SMILES
8.6 | Cc1nc(C(=O)NCc2ccc(OCc3ccccc3F)cc2)cn1C [Compound 43]
8.9 | Cc1cc(C(=O)NCc2ccc(OCc3ccccc3F)cc2)n(C)n1 [Compound 41]
5.5 | Cc1nc(C(=O)NCc2ccc(OCc3ccccc3F)cc2)sc1C [Compound 35]
6.2 | CC(C)c1cc(C(=O)NCc2ccc(OCc3ccccc3F)cc2)n[nH]1 [Compound 42]
9.4 | Cc1csc(C(=O)NCc2ccc(OCc3ccccc3F)cc2)n1 [Compound 34]
5.9 | Cn1cnc(C(=O)NCc2ccc(OCc3ccccc3F)cc2)n1 [Compound 32]
7.5 | O=C(NCc1ccc(OCc2ccccc2F)cc1)c1nc(C(F)(F)F)cs1 [Compound 33]
1.9 | O=C(NCc1ccc(OCc2ccccc2F)cc1)c1csc(C(F)(F)F)n1 [Compound 23]
4.3 | CN(Cc1ccc(OCc2ccccc2F)cc1)C(=O)c1cn2ccccc2n1 [Compound 27]
5.6 | Cc1cccc(C(=O)NCc2ccc(OCc3ccccc3F)cc2)n1 [Compound 36]

The next lines start with the molecule.

SMILES | IC50 [µM]
O=C(NCc1ccc(OCc2ccccc2F)cc1)c1cccn2cncc12 [Compound 45] | 7.6
CC(C)(Oc1ccc(CNC(=O)c2cccn3ccnc23)cc1)c1ccccc1F [Compound 28] | 2.6
O=C(NCc1ccc(OCc2ccccc2F)cc1)c1cccn2cnnc12 [Compound 39] | 4.1
O=C(NCc1ccc(OCC2CCCC2)cc1)c1cccn2cnnc12 [Compound 51] | 0.98
O=C(NCc1ccc(OCC2CCCCC2)cc1)c1ccn2ccnc2c1 [Compound 48] | 5.7
O=C(NCc1ccc(OCc2ccccc2F)cc1)c1cnc2ccccn12 [Compound 37] | 8.9
O=C(NCc1ccc(OCc2ccccc2F)cc1)c1nccn2ccnc12 [Compound 31] | 3.2
CC(C)(Oc1ccc(CNC(=O)c2ccn3ccnc3c2)cc1)c1ccccc1F [Compound 29] | 6.5
O=C(NCc1ccc(OCc2ccccc2F)cc1)c1cccc2ccnn12 [Compound 38] | 3.2
COC[C@@H](C)N(Cc1ccc(OCc2ccccc2F)cc1)C(=O)c1cn2ccccc2n1 [Compound 44] | 6.3
O=C(NCc1ccc(OCc2ccccc2F)cc1)c1ccn2ccnc2c1 [Compound 26] | 5.2
O=C(NCc1ccc(OCc2ccccc2F)cc1)c1cccn2ccnc12 [Compound 40] | 3.5
O=C(NCc1ccc(OCC2CCCCC2)cc1)c1cn2ccccc2n1 [Compound 50] | 3.2
COC[C@H](C)N(Cc1ccc(OCc2ccccc2F)cc1)C(=O)c1cn2ccccc2n1 [Compound 24] | 7.2
O=C(NCc1ccc(OCc2ccccc2F)cc1)c1cccn2nnnc12 [Compound 30] | 7.5
O=C(NCc1ccc(OCC2CCCCC2)cc1)c1cccn2cnnc12 [Compound 49] | 2.5
O=C(NCc1ccc(OCc2ccccc2F)cc1)c1cn2ccccc2n1 [Compound 25] | 5.7
O=C(NCc1ccc(OCC2CCCCC2)cc1)c1ccc2cncn2c1 [Compound 47] | 3.6
